Key:
[1] = test system: freely moving rats; assay: Induction and maintenance of PCP-induced hypofunction: LCGU by 14C-2-deoxyglucose autoradiography; assay type: in vivo, rat
Experimental: An initial treatment period of intraperitoneal (i.p.) injections once daily for 5 days was carried out, followed by a maintenance schedule of i.p. injections three times weekly (every 60 hours) for a further 21 days.
Intermittent exposure to PCP during the maintenance phase of the model was favoured due to the long half life of the drug within brain tissue (Misra, A. L. et al). […] As a comparison to the present model, the inventors also investigated the effect of previously published subchronic treatment with PCP (Jentsch, J. D. et al) using quantitative C-2-deoxyglucose autoradiography (Sokoloff, L.)
Local cerebral glucose utilisation (LCGU) was measured using an adaptation of the original method for freely moving rats (Crane, A. M. et al) 72 hours after the initial induction phase (day 8) and 72 hours after the induction phase followed by the maintenance phase (day 29). LCGU was measured 72 hours after the last exposure to PCP so the effects of PCP on LCGU would be independent of the acute effects of the drug. […] Thus, using a dose of 2.59 mgkg^−1 the inventors had established a novel treatment paradigm which mimics the findings of human imaging studies in schizophrenic patients.

[2] = test system: parvalbumin mRNA; assay: Parvalbumin mRNA in situ hybridisation in chronic PCP model; assay type: in vivo, rat; conditions: chronic PCP treatment, alone or with clozapine or haloperidol
Experimental: In order to validate further this chronic PCP model the effect of this treatment paradigm on parvalbumin mRNA expression was investigated.
In situ hybridisation: a 45mer oligonucleotide probe was designed against bases 223-267 of the rat parvalbumin gene (GenBank accession number A819345). In situ hybridisation was carried out according to the method of Wisden and Morris (1994).

[3] = test system: UNC5H1 (a netrin receptor); assay: Rat Atlas Array, prefrontal cortex, chronic PCP model; assay type: in vivo
Experimental: (§5) Rats were injected with PCP (2.58 mg/kg) or vehicle i.p. for 5 days according to the YRING PCP model. […] On the same day, the rats began a course of i.p. injections every 2.5 days with either PCP (2.58 mg/kg) or vehicle.
(§6) 21 days after minipump implantation, animals were killed by cervical dislocation and the prefrontal cortex dissected and stored at −70° C. RNA was then prepared according to the protocol below and the corresponding cDNA synthesis and hybridisation procedure were conducted using the rat Atlas Array kit according to the manufacturer's instructions (Clontech).
(§7) Results are expressed as mean relative optical densities ±SEM. Statistical significance was defined as P<0.05. N=¾ per group.
(§8) Frozen tissue already resides in the ribolyser tubes from the dissection procedure • 1) Add 1.1 ml Qiagen lysis buffer (containing β-mercaptoethanol, final volume =3%). • 2) Perform 3×20 sec homogenisations at 6.5 g in a ribolyser. • 3) Spin 3 min in microfuge. • 4) Decant to fresh tube and re-spin 3 min. • 5) Decide at this stage if you want to dilute supernatant with more lysis buffer. • 6) Add equal volume of phenol/CHCl3 pH4.7, vortex 30 sec and leave on ice for 10 min. • 7) Re-vortex and spin 4° C. 5-10 min at 1500 g. • 8) Decant supernatant and add 100 μl H2O. Add an equal volume of phenol/CHCl3 pH4.7, vortex, spin 5-10 min at 1500 g. • 9) Decant supernatant and add 100 μl H2O. […]

[4] = test system: Synapsins 1A&1B; assay: as above; assay type: in vivo
Experimental: as §5, §6, §7, §8

[5] = test system: CIRL1 mRNA; assay: Semi-quantitative RT-PCR, prefrontal cortex, chronic PCP and antipsychotic treatment; assay type: in vivo, rat; conditions: chronic PCP treatment
Experimental: FIG. 14 illustrates the level of CIRL1 mRNA present in the prefrontal cortex of rat brain following chronic PCP and antipsychotic treatment (n=12 for all groups apart from veh-veh where n=11). […] and […] (SEQ ID NOS: 25-26) were the primer sequences used to amplify this product.
(§1) RT-PCR for specific isoforms of CIRL was then conducted in the prefrontal cortex.
(§2) 1 ml of lysis buffer (Qiagen), including 1% β-mercaptoethanol, was added to approximately 50-100 mg of brain tissue. Tissue samples were homogenised using a ribolyser (Hybaid) with 3 bursts at 6.5 g lasting 20 seconds each. Samples were then spun at room temperature in a microfuge for 3 minutes. The supernatant was removed and re-spun for a further 3 minutes. The supernatant was decanted to a fresh tube to which an equal volume of 70% ethanol was added. The remaining RNA isolation procedure was carried out according to the manufacturer's protocol (Qiagen).
(§3) Synthesis of cDNA was carried out according to manufacturers protocols (Life Technologies). Briefly 3-5μg of total RNA was reverse transcribed using oligo dT priming. After cDNA synthesis, samples were aliquoted and stored at −70° C. […]
(§4) Alterations in expression levels were determined by semi-quantitative PCR. […] Samples were removed over 4 consecutive cycles, however, the first cycle to be removed sometimes varied depending on when logarithmic amplification was detected. […]

[6] = test system: CIRL2 variant AB mRNA; assay: as above; assay type: in vivo, rat; conditions: chronic PCP treatment
Experimental: FIG. 15 illustrates the level of CIRL2 variant AB mRNA present in the prefrontal cortex of rat brain following chronic PCP and antipsychotic treatment (n=12 for all groups apart from veh-veh where n=11). […] and […] (SEQ ID NOS: 27-28) were the primer sequences used to amplify this product.
as §1, §2, §3, §4

SMILES: c1ccc(C2(N3CCCCC3)CCCCC2)cc1 [PCP, phencyclidine]
- maintenance of metabolic hypofunction by second phase of the model ([1]; 0.86 mgkg^−1 PCP): not, however, maintained
- LCGU, Au layer I ([1]; 0.86 mgkg^−1 PCP i.p., day 8): 127 ± 2 μmol/100 g/min
- LCGU, Au layers II, III&IV ([1]; 0.86 mgkg^−1 PCP i.p., day 8): 152 ± 3 μmol/100 g/min
- LCGU, Au layers V & VI ([1]; 0.86 mgkg^−1 PCP i.p., day 8): 114 ± 4 μmol/100 g/min
- LCGU, AuD layer I ([1]; 0.86 mgkg^−1 PCP i.p., day 8): 126 ± 3 μmol/100 g/min
- LCGU, AuD layers II, III&IV ([1]; 0.86 mgkg^−1 PCP i.p., day 8): 151 ± 4 μmol/100 g/min
- LCGU, AuD layers V & VI ([1]; 0.86 mgkg^−1 PCP i.p., day 8): 106 ± 2 μmol/100 g/min
- LCGU, DLL ([1]; 0.86 mgkg^−1 PCP i.p., day 8): 91 ± 4 μmol/100 g/min
- LCGU, MD ([1]; 0.86 mgkg^−1 PCP i.p., day 8): 112 ± 4 μmol/100 g/min
- LCGU, PrL layer I ([1]; 0.86 mgkg^−1 PCP i.p., day 8): 132 ± 6 μmol/100 g/min
- LCGU, PrL layers II & III ([1]; 0.86 mgkg^−1 PCP i.p., day 8): 150 ± 7 μmol/100 g/min
- LCGU, PrL layers V & VI ([1]; 0.86 mgkg^−1 PCP i.p., day 8): 115 ± 3 μmol/100 g/min
- LCGU, Rt ([1]; 0.86 mgkg^−1 PCP i.p., day 8): 106 ± 2 μmol/100 g/min
- LCGU, VLL ([1]; 0.86 mgkg^−1 PCP i.p., day 8): 98 ± 5 μmol/100 g/min
- LCGU, cochlear nucleus ([1]; 0.86 mgkg^−1 PCP i.p., day 8): 107 ± 3 μmol/100 g/min
- LCGU, mO layer ([1]; 0.86 mgkg^−1 PCP i.p., day 8): 110 ± 2 μmol/100 g/min
- LCGU, mO layers II & III ([1]; 0.86 mgkg^−1 PCP i.p., day 8): 127 ± 2 μmol/100 g/min
- LCGU, mO layers V & VI ([1]; 0.86 mgkg^−1 PCP i.p., day 8): 129 ± 5 μmol/100 g/min
- LCGU, Au layer I ([1]; 0.86 mgkg^−1 PCP i.p., day 29): 167 ± 14 μmol/100 g/min
- LCGU, Au layers II, III&IV ([1]; 0.86 mgkg^−1 PCP i.p., day 29): 189 ± 12 μmol/100 g/min
- LCGU, Au layers V & VI ([1]; 0.86 mgkg^−1 PCP i.p., day 29): 137 ± 10 μmol/100 g/min
- LCGU, AuD layer I ([1]; 0.86 mgkg^−1 PCP i.p., day 29): 159 ± 11 μmol/100 g/min
- LCGU, AuD layers II, III&IV ([1]; 0.86 mgkg^−1 PCP i.p., day 29): 178 ± 10 μmol/100 g/min
- LCGU, AuD layers V & VI ([1]; 0.86 mgkg^−1 PCP i.p., day 29): 128 ± 9 μmol/100 g/min
- LCGU, DLL ([1]; 0.86 mgkg^−1 PCP i.p., day 29): 116 ± 8 μmol/100 g/min
- LCGU, MD ([1]; 0.86 mgkg^−1 PCP i.p., day 29): 122 ± 5 μmol/100 g/min
- LCGU, PrL layer I ([1]; 0.86 mgkg^−1 PCP i.p., day 29): 133 ± 2 μmol/100 g/min
- LCGU, PrL layers II & III ([1]; 0.86 mgkg^−1 PCP i.p., day 29): 149 ± 2 μmol/100 g/min
- LCGU, PrL layers V & VI ([1]; 0.86 mgkg^−1 PCP i.p., day 29): 112 ± 3 μmol/100 g/min
- LCGU, Rt ([1]; 0.86 mgkg^−1 PCP i.p., day 29): 108 ± 4 μmol/100 g/min
- LCGU, VLL ([1]; 0.86 mgkg^−1 PCP i.p., day 29): 118 ± 13 μmol/100 g/min
- LCGU, cochlear nucleus ([1]; 0.86 mgkg^−1 PCP i.p., day 29): 117 ± 2 μmol/100 g/min
- LCGU, mO layer ([1]; 0.86 mgkg^−1 PCP i.p., day 29): 122 ± 3 μmol/100 g/min
- LCGU, mO layers II & III ([1]; 0.86 mgkg^−1 PCP i.p., day 29): 135 ± 4 μmol/100 g/min
- LCGU, mO layers V & VI ([1]; 0.86 mgkg^−1 PCP i.p., day 29): 136 ± 3 μmol/100 g/min
- LCGU, Au layer I ([1]; 2.58 mgkg^−1 PCP i.p., day 8): 135 ± 3 μmol/100 g/min
- LCGU, Au layers II, III&IV ([1]; 2.58 mgkg^−1 PCP i.p., day 8): 166 ± 5 μmol/100 g/min
- LCGU, Au layers V & VI ([1]; 2.58 mgkg^−1 PCP i.p., day 8): 120 ± 4 μmol/100 g/min
- LCGU, AuD layer I ([1]; 2.58 mgkg^−1 PCP i.p., day 8): 135 ± 3 μmol/100 g/min
- LCGU, AuD layers II, III&IV ([1]; 2.58 mgkg^−1 PCP i.p., day 8): 151 ± 4 μmol/100 g/min
- LCGU, AuD layers V & VI ([1]; 2.58 mgkg^−1 PCP i.p., day 8): 104 ± 2 μmol/100 g/min
- LCGU, DLL ([1]; 2.58 mgkg^−1 PCP i.p., day 8): 83 ± 4 μmol/100 g/min
- LCGU, MD ([1]; 2.58 mgkg^−1 PCP i.p., day 8): 115 ± 4 μmol/100 g/min
- LCGU, PrL layer I ([1]; 2.58 mgkg^−1 PCP i.p., day 8): 104 ± 2 μmol/100 g/min
- LCGU, PrL layers II & III ([1]; 2.58 mgkg^−1 PCP i.p., day 8): 133 ± 2 μmol/100 g/min
- LCGU, PrL layers V & VI ([1]; 2.58 mgkg^−1 PCP i.p., day 8): 96 ± 3 μmol/100 g/min
- LCGU, Rt ([1]; 2.58 mgkg^−1 PCP i.p., day 8): 86 ± 2 μmol/100 g/min
- LCGU, VLL ([1]; 2.58 mgkg^−1 PCP i.p., day 8): 93 ± 3 μmol/100 g/min
- LCGU, cochlear nucleus ([1]; 2.58 mgkg^−1 PCP i.p., day 8): 98 ± 3 μmol/100 g/min
- LCGU, mO layer ([1]; 2.58 mgkg^−1 PCP i.p., day 8): 105 ± 4 μmol/100 g/min
- LCGU, mO layers II & III ([1]; 2.58 mgkg^−1 PCP i.p., day 8): 127 ± 5 μmol/100 g/min
- LCGU, mO layers V & VI ([1]; 2.58 mgkg^−1 PCP i.p., day 8): 115 ± 1 μmol/100 g/min
- LCGU, Au layer I ([1]; 2.58 mgkg^−1 PCP i.p., day 29): 137 ± 5 μmol/100 g/min
- LCGU, Au layers II, III&IV ([1]; 2.58 mgkg^−1 PCP i.p., day 29): 162 ± 6 μmol/100 g/min
- LCGU, Au layers V & VI ([1]; 2.58 mgkg^−1 PCP i.p., day 29): 115 ± 3 μmol/100 g/min
- LCGU, AuD layer I ([1]; 2.58 mgkg^−1 PCP i.p., day 29): 130 ± 7 μmol/100 g/min
- LCGU, AuD layers II, III&IV ([1]; 2.58 mgkg^−1 PCP i.p., day 29): 146 ± 7 μmol/100 g/min
- LCGU, AuD layers V & VI ([1]; 2.58 mgkg^−1 PCP i.p., day 29): 101 ± 4 μmol/100 g/min
- LCGU, DLL ([1]; 2.58 mgkg^−1 PCP i.p., day 29): 96 ± 5 μmol/100 g/min
- LCGU, MD ([1]; 2.58 mgkg^−1 PCP i.p., day 29): 116 ± 3 μmol/100 g/min
- LCGU, PrL layer I ([1]; 2.58 mgkg^−1 PCP i.p., day 29): 107 ± 4 μmol/100 g/min
- LCGU, PrL layers II & III ([1]; 2.58 mgkg^−1 PCP i.p., day 29): 116 ± 1 μmol/100 g/min
- LCGU, PrL layers V & VI ([1]; 2.58 mgkg^−1 PCP i.p., day 29): 89 ± 2 μmol/100 g/min
- LCGU, Rt ([1]; 2.58 mgkg^−1 PCP i.p., day 29): 89 ± 2 μmol/100 g/min
- LCGU, VLL ([1]; 2.58 mgkg^−1 PCP i.p., day 29): 99 ± 4 μmol/100 g/min
- LCGU, cochlear nucleus ([1]; 2.58 mgkg^−1 PCP i.p., day 29): 94 ± 4 μmol/100 g/min
- LCGU, mO layer ([1]; 2.58 mgkg^−1 PCP i.p., day 29): 108 ± 5 μmol/100 g/min
- LCGU, mO layers II & III ([1]; 2.58 mgkg^−1 PCP i.p., day 29): 124 ± 5 μmol/100 g/min
- LCGU, mO layers V & VI ([1]; 2.58 mgkg^−1 PCP i.p., day 29): 111 ± 3 μmol/100 g/min
- LCGU in medial orbital cortex, prelimbic cortex, auditory pathway, reticular nucleus of the thalamus ([1]; 2.58 mgkg^−1 PCP, after both phases of the model): induced a metabolic hypofunction
- effect on LCGU within any brain area ([1]; subchronic PCP 5 mgkg^−1 twice daily for seven days (data not shown)): did not produce any significant effect
- parvalbumin mRNA, prelimbic region of the prefrontal cortex [2]: 0.0536±0.0023 relative optical density (ROD)
- parvalbumin mRNA, ventral reticular nucleus of the thalamus [2]: 0.5032±0.0194 ROD
- UNC5H1 expression (Atlas Array) [3]: 3936 ± 472 relative optical densities
- Synapsins 1A&1B expression (Atlas Array) [4]: 23020 ± 1412 relative optical densities
- expression of CIRL1 (RT-PCR) [5]: reduced
- expression of CIRL2 (AB) (RT-PCR) [6]: reduced
